Holding throughout (assay type): in vivo
The subject of one series is Chenopodium album. Put plainly: Greenhouse post-emergence herbicidal activity, CHEAL. An excerpt: (§1) The culture containers used were plastic flowerpots containing loamy sand with approximately 3.0% of humus as the substrate. The seeds of the test plants were sown separately for each species.
(§2) For the post-emergence treatment, the test plants were first grown to a height of 3 to 15 cm, depending on the plant habit, and only then treated with the active ingredients which had been suspended or emulsified in water. For this purpose, the test plants were either sown directly and grown in the same containers, or they were first grown separately as seedlings and transplanted into the test containers a few days prior to treatment.
(§3) Depending on the species, the plants were kept at 10-25° C. or 20-35° C., respectively.
(§4) The test period extended over 2 to 4 weeks. During this time, the plants were tended, and their response to the individual treatments was evaluated.
(§5) Evaluation was carried out using a scale from 0 to 100. 100 means no emergence of the plants, or complete destruction of at least the aerial moieties, and 0 means no damage, or normal course of growth. A good herbicidal activity is given at values of at least 70 and a very good herbicidal activity is given at values of at least 85.

For another series, the system named is Amaranthus retroflexus. Description: Greenhouse post-emergence herbicidal activity, AMARE. The settings on record: AMARE.
Source text: as §1, §2, §3, §4, §5

Another series relates to Kochia scoparia. Put plainly: Greenhouse post-emergence herbicidal activity, KCHSC. The settings on record: scale 0 to 100.
Source text: as §1, §2, §3, §4, §5

The subject of the next series is Abutilon theophrasti. Description: Greenhouse post-emergence herbicidal activity, ABUTH. Conditions: ABUTH.
Source text: as §1, §2, §3, §4, §5

For another series, the system named is Echinocloa crus-galli. Put plainly: Greenhouse post-emergence herbicidal activity, ECHCG. The settings on record: Echinochloa crus-galli, ECHCG.
Source text: as §1, §2, §3, §4, §5

A further series concerns Oryza sativa. Description: Greenhouse post-emergence herbicidal activity on crop ORYSA (rice).
Source text: as §1, §2, §3, §4, §5

The next series relates to Cirsium arvense. Description: Greenhouse post-emergence herbicidal activity, CIRAR. Conditions: CIRAR, 0.125 kg/ha, scale 0 to 100.
Source text: as §1, §2, §3, §4, §5

The test system of the next series is Zea mays. Put plainly: Greenhouse post-emergence herbicidal activity on crop ZEAMX (corn, maize). Details: key: 0 = no damage/normal growth, 100 = no emergence or complete destruction.
Source text: as §1, §2, §3, §4, §5

Another series concerns Ambrosia artemisiifolia. Put plainly: Greenhouse post-emergence herbicidal activity, AMBEL. The settings on record: scale 0 to 100.
Source text: as §1, §2, §3, §4, §5

The mark [1] stands for this setting: 2 kg/ha, scale 0 to 100, read-out: Herbicidal activity.
[2] abbreviates: ORYSA (rice, crop), 0.031 kg/ha, scale 0 to 100.
Setting [3] is: ORYSA (rice, crop), 0.063 kg/ha, scale 0 to 100.
Setting [4] is: application rate 2 kg/ha, read-out: Herbicidal activity.
Setting [5] is: crop ORYSA (rice), application rate 0.031 kg/ha.
The mark [6] stands for this setting: crop ORYSA (rice), application rate 0.063 kg/ha.
[7] abbreviates: crop ORYSA (rice), application rate 0.125 kg/ha.
Setting [8] is: crop ZEAMX (corn, maize), application rate 0.031 kg/ha.
[9] abbreviates: crop ZEAMX (corn, maize), application rate 0.063 kg/ha.
Where [10] appears, read: crop ZEAMX (corn, maize), application rate 0.125 kg/ha.

In US10023590B2, “Substituted pyridine compounds having herbicidal activity” (BASF SE, priority 2014, dated 2018) one finds pest or weed control and Herbicidal activity data, which are given here for 8 compounds.

Where two headings read alike, the source gives them in different places.

Turning to `CC1(C)c2cccnc2C(O)=C(c2c(Cl)ccc(NS(C)(=O)=O)c2Cl)S1(=O)=O` [I-6, N-[2,4-dichloro-3-(8-hydroxy-5,5-dimethyl-6,6-dioxo-thiopyrano[4,3-b]pyridin-7-yl)phenyl]methanesulfonamide], the pest or weed control at 31 g/ha is 95% in the series with Chenopodium album (0.031 kg/ha, scale 0 to 100) and 85% in the series with Amaranthus retroflexus (0.031 kg/ha, scale 0 to 100). The pest or weed control at 63 g/ha in the series on Chenopodium album (0.063 kg/ha, scale 0 to 100) amounted to 98%; in the series with Amaranthus retroflexus (0.063 kg/ha, scale 0 to 100), 95%. Further, the pest or weed control at 125 g/ha stood at 98% with Chenopodium album (0.125 kg/ha, scale 0 to 100); 98% in the series with Amaranthus retroflexus (0.125 kg/ha, scale 0 to 100); 100% with Cirsium arvense. In addition, the pest or weed control at 2000 g/ha in the series on Amaranthus retroflexus (setting [1]), in the series with Abutilon theophrasti (setting [1]) and in the series on Echinocloa crus-galli (setting [1]) was 100% in each case. The Herbicidal activity in the series on Kochia scoparia (0.031 kg/ha) is reported as 90; in the series with Kochia scoparia (0.063 kg/ha) it was 98; in the series on Oryza sativa (setting [2]) it was 0; in the series with Oryza sativa (setting [3]) it was 40.
For the compound `CCN(c1c(Cl)ccc(C2=C(O)c3ncccc3CS2(=O)=O)c1Cl)S(C)(=O)=O` [I-8, N-[2,6-dichloro-3-(8-hydroxy-6,6-dioxo-5H-thiopyrano[4,3-b]pyridin-7-yl)phenyl]-N-ethyl-methanesulfonamide], the pest or weed control at 31 g/ha in the series with Chenopodium album (0.031 kg/ha, scale 0 to 100) is 100%; with Amaranthus retroflexus (0.031 kg/ha, scale 0 to 100), 100%; in the series with Echinocloa crus-galli (0.031 kg/ha, scale 0 to 100), 90%. The pest or weed control at 63 g/ha was 100% in the series with Chenopodium album (0.063 kg/ha, scale 0 to 100); 90% with Amaranthus retroflexus (0.063 kg/ha, scale 0 to 100); 95% in the series with Echinocloa crus-galli (0.063 kg/ha, scale 0 to 100). Moreover, the pest or weed control at 125 g/ha turned out to be 100% in the series with Chenopodium album (0.125 kg/ha, scale 0 to 100) and 95% with Echinocloa crus-galli (0.125 kg/ha, scale 0 to 100). The pest or weed control at 2000 g/ha with Amaranthus retroflexus (setting [1]), in the series on Abutilon theophrasti (setting [1]) and in the series on Echinocloa crus-galli (setting [1]) was 100% throughout. In addition, the Herbicidal activity was determined as 0 with Oryza sativa (setting [2]); 25 in the series with Oryza sativa (setting [3]); 0 in the series with Zea mays (ZEAMX (corn, crop), 0.031 kg/ha, scale 0 to 100); 0 with Zea mays (ZEAMX (corn, crop), 0.063 kg/ha, scale 0 to 100).
In the case of `Cc1c(C2=C(OC(=O)C(C)(C)C)c3ncccc3C(C)(C)S2(=O)=O)cccc1N(C)S(C)(=O)=O` [I-13, [5,5-dimethyl-7-[2-methyl-3-[methyl(methylsulfonyl)amino]phenyl]-6,6-dioxo-thiopyrano[4,3-b]pyridin-8-yl] 2,2-dimethylpropanoate], the pest or weed control at 2000 g/ha in the series with Amaranthus retroflexus (setting [1]) was 100%; in the series on Echinocloa crus-galli (setting [1]), 75%. In addition, the Herbicidal activity with Kochia scoparia (0.125 kg/ha) is given as 90; with Oryza sativa (ORYSA (rice, crop), 0.125 kg/ha, scale 0 to 100), 0; in the series with Zea mays (ZEAMX (corn, crop), 0.125 kg/ha, scale 0 to 100) it was 0.
Consider `CN(c1cccc(C2=C(O)c3ncccc3C(C)(C)S2(=O)=O)c1Cl)S(C)(=O)=O` [I-17, N-[2-chloro-3-(8-hydroxy-5,5-dimethyl-6,6-dioxo-thiopyrano[4,3-b]pyridin-7-yl)phenyl]-N-methyl-methanesulfonamide], for which the pest or weed control at 31 g/ha stood at 100% in the series on Chenopodium album (0.031 kg/ha, scale 0 to 100); 98% with Amaranthus retroflexus (0.031 kg/ha, scale 0 to 100); 95% in the series on Echinocloa crus-galli (0.031 kg/ha, scale 0 to 100). Further, the pest or weed control at 63 g/ha amounted to 100% with Chenopodium album (0.063 kg/ha, scale 0 to 100) and 100% with Amaranthus retroflexus (0.063 kg/ha, scale 0 to 100). In addition, the pest or weed control at 125 g/ha in the series with Chenopodium album (0.125 kg/ha, scale 0 to 100) amounted to 100%; in the series on Amaranthus retroflexus (0.125 kg/ha, scale 0 to 100), 100%. Further, the pest or weed control at 2000 g/ha with Amaranthus retroflexus (setting [1]), in the series on Abutilon theophrasti (setting [1]) and in the series with Echinocloa crus-galli (setting [1]) was 100% each time. Moreover, the Herbicidal activity was found to be 10 in the series on Oryza sativa (setting [3]), 100 in the series with Ambrosia artemisiifolia (0.063 kg/ha) and 100 in the series on Ambrosia artemisiifolia (0.125 kg/ha).
For `CN(c1c(Cl)ccc(C2=C(OC(=O)C(C)(C)C)c3ncccc3C(C)(C)S2(=O)=O)c1Cl)S(C)(=O)=O` [I-30], the pest or weed control at 2000 g/ha in the series on Amaranthus retroflexus (setting [4]), with Abutilon theophrasti (setting [4]) and with Echinocloa crus-galli (setting [4]) was 100% each time.
Take `CN(c1cccc(C2=C(O)c3ncccc3C(C)(C)S2(=O)=O)c1S(C)(=O)=O)S(C)(=O)=O` [I-34, N-[3-(8-hydroxy-5,5-dimethyl-6,6-dioxo-thiopyrano[4,3-b]pyridin-7-yl)-2-methylsulfonyl-phenyl]-N-methyl-methanesulfonamide]: the pest or weed control at 31 g/ha with Chenopodium album (application rate 0.031 kg/ha) was 95%; with Amaranthus retroflexus (application rate 0.031 kg/ha) it was 90%. In addition, the values for the pest or weed control at 63 g/ha with Chenopodium album (application rate 0.063 kg/ha) and in the series on Amaranthus retroflexus (application rate 0.063 kg/ha) were 98% and 95%, respectively. Besides, the pest or weed control at 125 g/ha came to 100% with Chenopodium album (application rate 0.125 kg/ha), 98% in the series on Amaranthus retroflexus (application rate 0.125 kg/ha) and 70% in the series on Echinocloa crus-galli (application rate 0.125 kg/ha). Besides, the Herbicidal activity stood at 0 with Oryza sativa (setting [5]); 0 in the series with Oryza sativa (setting [6]); 0 with Oryza sativa (setting [7]); 0 in the series with Zea mays (setting [8]); 0 in the series on Zea mays (setting [9]); 15 in the series with Zea mays (setting [10]).
For the compound `CN(c1cccc(C2=C(O)c3ncccc3CS2(=O)=O)c1C(F)(F)F)S(C)(=O)=O` [I-35, N-[3-(8-hydroxy-6,6-dioxo-5H-thiopyrano[4,3-b]pyridin-7-yl)-2-(trifluoromethyl)phenyl]-N-methyl-methanesulfonamide], the values for the pest or weed control at 31 g/ha in the series with Chenopodium album (application rate 0.031 kg/ha) and with Echinocloa crus-galli (application rate 0.031 kg/ha) were 95% and 80%, respectively. Besides, the pest or weed control at 63 g/ha is 100% in the series on Chenopodium album (application rate 0.063 kg/ha), 75% in the series with Amaranthus retroflexus (application rate 0.063 kg/ha) and 90% in the series on Echinocloa crus-galli (application rate 0.063 kg/ha). Moreover, the figures for the pest or weed control at 125 g/ha in the series with Chenopodium album (application rate 0.125 kg/ha), with Amaranthus retroflexus (application rate 0.125 kg/ha) and in the series on Echinocloa crus-galli (application rate 0.125 kg/ha) were 100%, 100% and 90%, respectively. Also, the Herbicidal activity is given as 0 with Oryza sativa (setting [5]); 15 in the series on Oryza sativa (setting [6]); 25 with Oryza sativa (setting [7]); 0 in the series on Zea mays (setting [8]); 0 in the series on Zea mays (setting [9]); 0 in the series on Zea mays (setting [10]).
`CN(c1cccc(C2=C(O)c3ncccc3C(C)(C)S2(=O)=O)c1C(F)(F)F)S(C)(=O)=O` [I-36, N-[3-(8-hydroxy-5,5-dimethyl-6,6-dioxo-thiopyrano[4,3-b]pyridin-7-yl)-2-(trifluoromethyl)phenyl]-N-methyl-methanesulfonamide]: the pest or weed control at 31 g/ha with Chenopodium album (application rate 0.031 kg/ha) came to 100%; in the series with Amaranthus retroflexus (application rate 0.031 kg/ha), 90%; in the series with Echinocloa crus-galli (application rate 0.031 kg/ha) it was 70%. In addition, the figures for the pest or weed control at 63 g/ha in the series on Chenopodium album (application rate 0.063 kg/ha), in the series on Amaranthus retroflexus (application rate 0.063 kg/ha) and in the series with Echinocloa crus-galli (application rate 0.063 kg/ha) were 100%, 95% and 90%, respectively. The figures for the pest or weed control at 125 g/ha in the series with Chenopodium album (application rate 0.125 kg/ha), with Amaranthus retroflexus (application rate 0.125 kg/ha) and in the series with Echinocloa crus-galli (application rate 0.125 kg/ha) were 100%, 98% and 95%, respectively. Besides, the Herbicidal activity in the series on Oryza sativa (setting [5]) stood at 30; in the series on Oryza sativa (setting [6]), 40; in the series on Oryza sativa (setting [7]) it was 45; with Zea mays (setting [8]), 0; with Zea mays (setting [9]), 0; in the series with Zea mays (setting [10]), 0.
